Tested on: MV-4-11 cells
Assay: Gene expression microarray analysis (Affymetrix PrimeView) and GSEA
Format: cell-based, human
Design: RFU PODN (11730768_x_at) / Fold change /veh PODN (11730768_x_at) / RFU LINC00158 (11744669_a_at) / Fold change /veh LINC00158 (11744669_a_at) / RFU DUSP10 (11751237_a_at) / Fold change /veh DUSP10 (11751237_a_at) / RFU ID3 (11757404_x_at) / Fold change /veh ID3 (11757404_x_at) / RFU PLEKHG5 (11737974_s_at) / Fold change /veh PLEKHG5 (11737974_s_at) / RFU LRRC4B (11730491_at) / Fold change /veh LRRC4B (11730491_at) / RFU GIMAP4 (11747438_a_at) / Fold change /veh GIMAP4 (11747438_a_at) / RFU KRT8 (11758183_x_at) / Fold change /veh KRT8 (11758183_x_at) / RFU CNN1 (11734310_a_at) / Fold change /veh CNN1 (11734310_a_at) / RFU VPS37D (11726825_at) / Fold change /veh VPS37D (11726825_at) / RFU C10orf10 (11716522_x_at) / Fold change /veh C10orf10 (11716522_x_at) / RFU KIR2DL2 /// KIR2DL4 /// KIR2DL5A /// KIR2DL5B /// KIR2DS1 /// KIR2DS2 /// KIR2DS3 /// KIR2DS4 /// KIR3DL3 /// KIR3DL3 /// KIR3DS1 (11738374_at) / Fold change /veh KIR2DL2 /// KIR2DL4 /// KIR2DL5A /// KIR2DL5B /// KIR2DS1 /// KIR2DS2 /// KIR2DS3 /// KIR2DS4 /// KIR3DL3 /// KIR3DL3 /// KIR3DS1 (11738374_at) / RFU C1QL1 (11718748_at) / Fold change /veh C1QL1 (11718748_at) / RFU TMPRSS4 (11747572_a_at) / Fold change /veh TMPRSS4 (11747572_a_at) / RFU HAMP (11756126_x_at) / Fold change /veh HAMP (11756126_x_at) / RFU RNFT2 (11725882_a_at) / Fold change /veh RNFT2 (11725882_a_at) / RFU NR4A2 (11747474_a_at) / Fold change /veh NR4A2 (11747474_a_at) / RFU ABCC12 (11746883_a_at) / Fold change /veh ABCC12 (11746883_a_at) / RFU TMEM136 (11760407_x_at) / Fold change /veh TMEM136 (11760407_x_at) / RFU CLDN22 /// WWC2 (11732394_at) / Fold change /veh CLDN22 /// WWC2 (11732394_at) / RFU HLA-DPB1 (11760878_x_at) / Fold change /veh HLA-DPB1 (11760878_x_at) / RFU SPINT1 (11716480_a_at) / Fold change /veh SPINT1 (11716480_a_at) / RFU GAP43 (11754022_s_at) / Fold change /veh GAP43 (11754022_s_at) / RFU A4GNT (11735810_at) / Fold change /veh A4GNT (11735810_at) / RFU PRB3 (11715151_x_at) / Fold change /veh PRB3 (11715151_x_at) / RFU TUBB4B (11761932_at) / Fold change /veh TUBB4B (11761932_at) / RFU CAPN14 (11732068_a_at) / Fold change /veh CAPN14 (11732068_a_at) / RFU TMCC2 (11721928_a_at) / Fold change /veh TMCC2 (11721928_a_at) / RFU IRGQ (11745062_a_at) / Fold change /veh IRGQ (11745062_a_at) / RFU FAM174B (11720279_a_at) / Fold change /veh FAM174B (11720279_a_at) / RFU TMPRSS4 (11748680_a_at) / Fold change /veh TMPRSS4 (11748680_a_at) / RFU FAM212B (11763350_a_at) / Fold change /veh FAM212B (11763350_a_at) / RFU PLEKHG5 (11743358_a_at) / Fold change /veh PLEKHG5 (11743358_a_at) / RFU ZSCAN30 (11745921_a_at) / Fold change /veh ZSCAN30 (11745921_a_at) / RFU CMKLR1 (11741424_a_at) / Fold change /veh CMKLR1 (11741424_a_at) / RFU LOC101060620 /// MAPK8IP1 (11723275_at) / Fold change /veh LOC101060620 /// MAPK8IP1 (11723275_at) / RFU SPTSSB (11747773_x_at) / Fold change /veh SPTSSB (11747773_x_at) / RFU PRSS12 (11739890_at) / Fold change /veh PRSS12 (11739890_at) / RFU BIN1 (11741810_x_at) / Fold change /veh BIN1 (11741810_x_at) / RFU WNT11 (11732464_a_at) / Fold change /veh WNT11 (11732464_a_at) / RFU C10orf10 (11716521_a_at) / Fold change /veh C10orf10 (11716521_a_at) / RFU C5orf56 (11738089_at) / Fold change /veh C5orf56 (11738089_at) / RFU CYB561 (11721691_x_at) / Fold change /veh CYB561 (11721691_x_at) / RFU ANKRD19P (11752326_a_at) / Fold change /veh ANKRD19P (11752326_a_at) / RFU OR2T12 /// OR2T33 /// OR2T8 (11738714_s_at) / Fold change /veh OR2T12 /// OR2T33 /// OR2T8 (11738714_s_at) / RFU VCAN (11748164_a_at) / Fold change /veh VCAN (11748164_a_at) / RFU JSRP1 (11732532_at) / Fold change /veh JSRP1 (11732532_at) / RFU KRTAP10-11 (11738290_x_at) / Fold change /veh KRTAP10-11 (11738290_x_at) / RFU MYO3A (11730013_a_at) / Fold change /veh MYO3A (11730013_a_at) / RFU EBF3 (11725865_a_at) / Fold change /veh EBF3 (11725865_a_at) / RFU CAMK2N1 (11719241_x_at) / Fold change /veh CAMK2N1 (11719241_x_at) / RFU C5orf56 (11738088_a_at) / Fold change /veh C5orf56 (11738088_a_at) / RFU OLFML3 (11715873_a_at) / Fold change /veh OLFML3 (11715873_a_at) / RFU LOC100653217 /// NTM (11731650_a_at) / Fold change /veh LOC100653217 /// NTM (11731650_a_at) / RFU MAPK11 (11762145_a_at) / Fold change /veh MAPK11 (11762145_a_at) / RFU FIZ1 (11724087_x_at) / Fold change /veh FIZ1 (11724087_x_at) / RFU OASL (11726364_x_at) / Fold change /veh OASL (11726364_x_at) / RFU SOX15 (11748057_x_at) / Fold change /veh SOX15 (11748057_x_at) / RFU CD79A (11719716_a_at) / Fold change /veh CD79A (11719716_a_at) / RFU HIST1H1D (11736915_at) / Fold change /veh HIST1H1D (11736915_at) / RFU CASKIN2 (11723855_a_at) / Fold change /veh CASKIN2 (11723855_a_at) / RFU LOC730098 (11760151_x_at) / Fold change /veh LOC730098 (11760151_x_at) / RFU OR4N2 (11742367_at) / Fold change /veh OR4N2 (11742367_at) / RFU PRRT2 (11749266_a_at) / Fold change /veh PRRT2 (11749266_a_at) / RFU SNX32 (11753110_a_at) / Fold change /veh SNX32 (11753110_a_at) / RFU CDHR5 (11726645_a_at) / Fold change /veh CDHR5 (11726645_a_at) / RFU RCAN1 (11760418_a_at) / Fold change /veh RCAN1 (11760418_a_at) / RFU FAM167A (11723789_a_at) / Fold change /veh FAM167A (11723789_a_at) / RFU FAM26E (11764081_at) / Fold change /veh FAM26E (11764081_at) / RFU ISYNA1 (11749810_s_at) / Fold change /veh ISYNA1 (11749810_s_at) / RFU ACY1 (11761880_at) / Fold change /veh ACY1 (11761880_at) / RFU 11764098_at / Fold change /veh 11764098_at / RFU SAMD14 (11745864_x_at) / Fold change /veh SAMD14 (11745864_x_at) / RFU NPB (11741838_a_at) / Fold change /veh NPB (11741838_a_at) / RFU TMPRSS6 (11731388_a_at) / Fold change /veh TMPRSS6 (11731388_a_at) / RFU KRTAP10-2 (11738614_at) / Fold change /veh KRTAP10-2 (11738614_at) / RFU ARHGAP8 /// PRR5-ARHGAP8 (11727945_x_at) / Fold change /veh ARHGAP8 /// PRR5-ARHGAP8 (11727945_x_at) / RFU KRTAP5-7 /// NADSYN1 (11734609_at) / Fold change /veh KRTAP5-7 /// NADSYN1 (11734609_at) / RFU RASL12 (11751679_a_at) / Fold change /veh RASL12 (11751679_a_at) / RFU CDKN2B (11736163_a_at) / Fold change /veh CDKN2B (11736163_a_at) / RFU PRF1 (11729649_at) / Fold change /veh PRF1 (11729649_at) / RFU, ZNF638 /// ZNF638-IT1 / Fold change vs veh, ZNF638 /// ZNF638-IT1 / RFU, PANK3 / Fold change vs veh, PANK3 / RFU, SH3YL1 / Fold change vs veh, SH3YL1 / RFU, ZEB2 / Fold change vs veh, ZEB2 / RFU, NRIP1 / Fold change vs veh, NRIP1 / RFU, PTTG1IP / Fold change vs veh, PTTG1IP / RFU, CAPN2 / Fold change vs veh, CAPN2 / RFU, MED14 / Fold change vs veh, MED14 / RFU, SNORA58 / Fold change vs veh, SNORA58 / RFU, C1orf63 / Fold change vs veh, C1orf63 / RFU, LRRFIP1 / Fold change vs veh, LRRFIP1 / RFU, NDUFAF7 / Fold change vs veh, NDUFAF7 / RFU, SLC12A2 / Fold change vs veh, SLC12A2 / RFU, IBTK / Fold change vs veh, IBTK / RFU, ESF1 / Fold change vs veh, ESF1 / Fold change vs veh, TMEM50B / RFU, TAOK1 / Fold change vs veh, TAOK1 / RFU, ACBD3 / Fold change vs veh, ACBD3 / RFU, TMA16 / Fold change vs veh, TMA16 / RFU, RWDD3 / Fold change vs veh, RWDD3 / RFU, BCAT1 / Fold change vs veh, BCAT1 / RFU, EDEM3 / Fold change vs veh, EDEM3 / RFU, TMEM33 / Fold change vs veh, TMEM33 / RFU, WDR75 / Fold change vs veh, WDR75 / RFU, AHCTF1 / Fold change vs veh, AHCTF1 / RFU, TFRC / Fold change vs veh, TFRC / RFU, ZDHHC17 / Fold change vs veh, ZDHHC17 / RFU, NOM1 / Fold change vs veh, NOM1 / RFU, ARL8B / Fold change vs veh, ARL8B / RFU, ZBTB11 / Fold change vs veh, ZBTB11 / RFU, TAMM41 / Fold change vs veh, TAMM41 / RFU, KIAA1704 /// LOC100996395 / Fold change vs veh, KIAA1704 /// LOC100996395 / RFU, ING1 / Fold change vs veh, ING1 / RFU, TRMT61B / Fold change vs veh, TRMT61B / RFU, FUBP3 / Fold change vs veh, FUBP3 / RFU, TP53 / Fold change vs veh, TP53 / RFU, TNKS2 / Fold change vs veh, TNKS2 / RFU, ZFP14 / Fold change vs veh, ZFP14 / RFU, ACTR2 / Fold change vs veh, ACTR2 / RFU, PPP3R1 / Fold change vs veh, PPP3R1 / RFU, PIK3R1 / Fold change vs veh, PIK3R1 / RFU, HNRNPA1 / Fold change vs veh, HNRNPA1 / RFU, RNF170 / Fold change vs veh, RNF170 / RFU, ZNF28 / Fold change vs veh, ZNF28 / RFU, RNGTT / Fold change vs veh, RNGTT / RFU, OGT / Fold change vs veh, OGT / RFU, BRD1 / Fold change vs veh, BRD1 / RFU, MARS / Fold change vs veh, MARS / RFU, ZNF655 / Fold change vs veh, ZNF655 / RFU, FAHD1 / Fold change vs veh, FAHD1 / RFU, BDP1 / Fold change vs veh, BDP1 / RFU, LRRCC1 / Fold change vs veh, LRRCC1 / RFU, ARID1A / Fold change vs veh, ARID1A / RFU, ZNF146 / Fold change vs veh, ZNF146 / RFU, ZNF330 / Fold change vs veh, ZNF330 / RFU, GPN3 / Fold change vs veh, GPN3 / RFU, C9orf123 / Fold change vs veh, C9orf123 / RFU, N4BP2L2 / Fold change vs veh, N4BP2L2 / RFU, ARFIP1 / Fold change vs veh, ARFIP1 / RFU, FAM179B / Fold change vs veh, FAM179B / RFU, BCL10 / Fold change vs veh, BCL10 / RFU, UHRF1BP1L / Fold change vs veh, UHRF1BP1L / RFU, BET1 / Fold change vs veh, BET1 / RFU, CNOT2 / Fold change vs veh, CNOT2 / RFU, ZNF268 / Fold change vs veh, ZNF268 / Fold change vs veh, ZNF507 / RFU, DGCR2 / Fold change vs veh, DGCR2 / RFU, WDSUB1 / Fold change vs veh, WDSUB1 / Fold change vs veh, HSP90B1 /// MIR3652 / RFU, ADSS / Fold change vs veh, ADSS / RFU, GK / Fold change vs veh, GK / RFU, ZNF148 / Fold change vs veh, ZNF148 / RFU, TAF9 / Fold change vs veh, TAF9 / RFU, SLC1A5 / Fold change vs veh, SLC1A5 / RFU, SLMO2 / Fold change vs veh, SLMO2 / RFU, ABCC4 / Fold change vs veh, ABCC4 / RFU, LOC101060439 /// RAP1B / Fold change vs veh, LOC101060439 /// RAP1B / RFU, RFX7 / Fold change vs veh, RFX7 / RFU, GTPBP10 / Fold change vs veh, GTPBP10 / RFU, CNEP1R1 / Fold change vs veh, CNEP1R1 / RFU, BIVM-ERCC5 /// ERCC5 / Fold change vs veh, BIVM-ERCC5 /// ERCC5 / RFU, ILF3 / Fold change vs veh, ILF3 / RFU 11762660_at / Fold change /veh 11762660_at / RFU VCAN (11757783_s_at) / Fold change /veh VCAN (11757783_s_at) / RFU DDX43 (11728927_at) / Fold change /veh DDX43 (11728927_at) / RFU KRT8 (11758188_x_at) / Fold change /veh KRT8 (11758188_x_at) / RFU NKD1 (11759106_at) / Fold change /veh NKD1 (11759106_at) / RFU SRD5A1 (11742802_a_at) / Fold change /veh SRD5A1 (11742802_a_at) / RFU TPSAB1 /// TPSB2 (11721975_s_at) / Fold change /veh TPSAB1 /// TPSB2 (11721975_s_at) / RFU GSTM3 (11746129_a_at) / Fold change /veh GSTM3 (11746129_a_at) / RFU IL23R (11737362_x_at) / Fold change /veh IL23R (11737362_x_at) / RFU TMEM51 (11727254_a_at) / Fold change /veh TMEM51 (11727254_a_at) / RFU PIWIL2 (11732686_x_at) / Fold change /veh PIWIL2 (11732686_x_at) / RFU ORM1 (11744905_x_at) / Fold change /veh ORM1 (11744905_x_at) / RFU CCDC152 (11743942_at) / Fold change /veh CCDC152 (11743942_at) / RFU ECM1 (11717891_a_at) / Fold change /veh ECM1 (11717891_a_at) / RFU IL23R (11748794_a_at) / Fold change /veh IL23R (11748794_a_at) / RFU TNFAIP8L3 (11732012_x_at) / Fold change /veh TNFAIP8L3 (11732012_x_at) / RFU MBOAT4 (11741988_at) / Fold change /veh MBOAT4 (11741988_at) / RFU 11764193_at / Fold change /veh 11764193_at / RFU TMEM53 (11763286_at) / Fold change /veh TMEM53 (11763286_at) / RFU MAGEB2 (11727129_at) / Fold change /veh MAGEB2 (11727129_at) / RFU TMEM200A (11744735_a_at) / Fold change /veh TMEM200A (11744735_a_at) / RFU CCDC152 (11751479_a_at) / Fold change /veh CCDC152 (11751479_a_at) / RFU FAM211A (11726209_a_at) / Fold change /veh FAM211A (11726209_a_at) / RFU RGS16 (11746705_a_at) / Fold change /veh RGS16 (11746705_a_at) / RFU VCAN (11755009_s_at) / Fold change /veh VCAN (11755009_s_at) / RFU RHOB (11743442_s_at) / Fold change /veh RHOB (11743442_s_at) / RFU RGS16 (11720943_a_at) / Fold change /veh RGS16 (11720943_a_at) / RFU RGS16 (11720944_at) / Fold change /veh RGS16 (11720944_at) / RFU, VPS4B / Fold change vs veh, VPS4B / RFU, CREB1 / Fold change vs veh, CREB1 / RFU, DNAJC13 / Fold change vs veh, DNAJC13 / RFU, GNAQ / Fold change vs veh, GNAQ / RFU, CDK5R1 / Fold change vs veh, CDK5R1 / RFU, ZRANB3 / Fold change vs veh, ZRANB3 / RFU, CUL4A / Fold change vs veh, CUL4A / RFU, CCNY / Fold change vs veh, CCNY / RFU, UFL1 / Fold change vs veh, UFL1 / RFU, COG3 / Fold change vs veh, COG3 / RFU, DIAPH2 / Fold change vs veh, DIAPH2 / RFU, SKA2 / Fold change vs veh, SKA2 / RFU, AFF3 / Fold change vs veh, AFF3 / RFU, LMF1 / Fold change vs veh, LMF1 / RFU, IPO11 / Fold change vs veh, IPO11 / RFU, DFFB / Fold change vs veh, DFFB / RFU, FOXP1 / Fold change vs veh, FOXP1 / RFU, CARD8 / Fold change vs veh, CARD8 / RFU, STRN3 / Fold change vs veh, STRN3 / RFU, ADK / Fold change vs veh, ADK / RFU, RASSF2 / Fold change vs veh, RASSF2 / RFU, WIPF1 / Fold change vs veh, WIPF1 / RFU, LARP1B / Fold change vs veh, LARP1B / RFU, RASA1 / Fold change vs veh, RASA1 / RFU, RB1 / Fold change vs veh, RB1 / RFU, PPFIA1 / Fold change vs veh, PPFIA1 / RFU, MAT2A / Fold change vs veh, MAT2A / RFU, CCT5 / Fold change vs veh, CCT5 / RFU, WDR92 / Fold change vs veh, WDR92 / RFU, CUX1 / Fold change vs veh, CUX1 / RFU, TTC7A / Fold change vs veh, TTC7A / RFU, TMEM135 / Fold change vs veh, TMEM135 / RFU, DEPTOR / Fold change vs veh, DEPTOR / RFU, CPM / Fold change vs veh, CPM / RFU, DNAJB6 / Fold change vs veh, DNAJB6 / RFU, CACNA2D3 / Fold change vs veh, CACNA2D3 / RFU, DTX4 / Fold change vs veh, DTX4 / RFU, TFCP2 / Fold change vs veh, TFCP2 / RFU, GMCL1 /// GMCL1P1 / Fold change vs veh, GMCL1 /// GMCL1P1 / RFU, AEBP2 / Fold change vs veh, AEBP2 / RFU, SNHG1 /// SNORD22 /// SNORD25 /// SNORD26 /// SNORD27 /// SNORD28 /// SNORD29 /// SNORD31 / Fold change vs veh, SNHG1 /// SNORD22 /// SNORD25 /// SNORD26 /// SNORD27 /// SNORD28 /// SNORD29 /// SNORD31 / Fold change (Aza/veh), C12orf56 (ProbeSet 11735607_a_at) / Fold change (ACY-1035/veh), C12orf56 (ProbeSet 11735607_a_at) / Fold change (Aza/veh), FGFR1OP (ProbeSet 11751329_s_at) / Fold change (ACY-1035/veh), FGFR1OP (ProbeSet 11751329_s_at) / Fold change (Aza/veh), VPS36 (ProbeSet 11739960_a_at) / Fold change (ACY-1035/veh), VPS36 (ProbeSet 11739960_a_at) / RFU SYPL1 (11715823_x_at) / Fold change /veh SYPL1 (11715823_x_at) / RFU IGFBP7 (11715501_s_at) / Fold change /veh IGFBP7 (11715501_s_at) / RFU REEP3 (11722064_at) / Fold change /veh REEP3 (11722064_at) / RFU IGLL1 (11728026_x_at) / Fold change /veh IGLL1 (11728026_x_at): dose or concentration left out as unconfirmed
Settings: MV-4-11 cells, 48 hours

## Nc1ncn([C@@H]2O[C@H](CO)[C@@H](O)[C@H]2O)c(=O)n1 [azacitidine]
  RFU IL23R (11748794_a_at): 8.76 RFU

Reference: paper PMC5218480 (PLoS ONE, 2017)
